Among the test systems are 786-0 renal; HL-60(TB) leukemia; HOP-92 NSCLC; MCF7 breast; NCI-H522 lung; SF-295 CNS; SK-OV-3 ovarian; SN12C renal; SNB-75 CNS; SW-620 colon.
Common to all, as to assay: NCI anticancer screen, dose series, 48 h

Where “and” joins values, the source holds several entries; their conditions need not be identical. Equal values may be shown once.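 Tested at 5 concentrations; 48 h exposure; 96-well plates; endpoints linearly interpolated, else capped at highest concentration. GI50 = concentration required for 50% inhibition of growth. At the TGI there is no net growth.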

In the case of `CNCCOC(=O)/C=C1/CCC2C(C(O)CC3C(C)(C(=O)OC)CCCC23C)C1C` (stereo not given), the GI50 with 786-0 renal is 0.0166 µM; in the experiment on HL-60(TB) leukemia, 0.0261 µM; in the experiment with HOP-92 NSCLC, 0.0243 µM; in the experiment with MCF7 breast, 0.0213 µM; with NCI-H522 lung, less than 0.01 µM; in the experiment on SF-295 CNS, 0.0209 µM. Besides, the GI50 was 0.0205 µM with SK-OV-3 ovarian, less than 0.01 µM in the experiment with SN12C renal, 0.0181 µM in the experiment with SNB-75 CNS and 0.018 µM in the experiment on SW-620 colon. Further, the TGI with 786-0 renal was determined as 0.0341 µM; in the experiment with HL-60(TB) leukemia it was 0.0638 µM; with HOP-92 NSCLC, 0.0764 µM; in the experiment on MCF7 breast, 0.071 µM; with NCI-H522 lung, 0.0203 µM; in the experiment with SF-295 CNS it was 0.0452 µM. The TGI in the experiment with SK-OV-3 ovarian is 0.0394 µM; with SN12C renal it was 0.112 µM; with SNB-75 CNS it was 0.0397 µM; in the experiment with SW-620 colon, 0.0394 µM.

For the compound `Oc1cc(Cl)ccc1Cc1ccc(Cl)cc1O`, the GI50 in the experiment with 786-0 renal was 18.4 µM; in the experiment on HL-60(TB) leukemia, 9.67 µM; in the experiment on HOP-92 NSCLC it was 2.67 µM; in the experiment with MCF7 breast, 13.2 µM; with NCI-H522 lung, 3.86 µM; in the experiment on SF-295 CNS, 6.34 µM. Besides, the GI50 is 20.6 µM in the experiment with SK-OV-3 ovarian, 7.92 µM with SN12C renal, 13.5 µM in the experiment on SNB-75 CNS and 9.73 µM in the experiment with SW-620 colon. Moreover, the TGI with 786-0 renal was 38 µM; in the experiment with HL-60(TB) leukemia, more than 100 µM; in the experiment on HOP-92 NSCLC, 8.11 µM; in the experiment with MCF7 breast, 27.9 µM; in the experiment with NCI-H522 lung, 15 µM; in the experiment with SF-295 CNS, 24.6 µM. The TGI in the experiment with SK-OV-3 ovarian was determined as 43.3 µM; with SN12C renal it was 20.6 µM; in the experiment with SNB-75 CNS it was 34.4 µM; with SW-620 colon, 21.4 µM.

With `CCC(=O)c1ccc2c(c1)N(CCCN1CCN(CCO)CC1)c1ccccc1S2`, the GI50 in the experiment with 786-0 renal was 13.2 µM; in the experiment with HL-60(TB) leukemia, 12.7 µM; in the experiment with HOP-92 NSCLC, 3.43 µM; with MCF7 breast, 12.4 µM; in the experiment with NCI-H522 lung it was 15.9 µM; with SF-295 CNS it was 12.2 µM. Also, the GI50 with SK-OV-3 ovarian was 16.8 µM; in the experiment on SN12C renal, 16.3 µM; with SNB-75 CNS it was 13.5 µM; in the experiment with SW-620 colon it was 16.1 µM. The TGI in the experiment on 786-0 renal was 26.9 µM; in the experiment with HL-60(TB) leukemia it was 30.3 µM; in the experiment with HOP-92 NSCLC it was 15.2 µM; in the experiment with MCF7 breast, 26.9 µM; in the experiment on NCI-H522 lung, 32.4 µM; in the experiment with SF-295 CNS, 25.9 µM. Further, the TGI in the experiment on SK-OV-3 ovarian was 31.6 µM; in the experiment with SN12C renal it was 33 µM; in the experiment on SNB-75 CNS, 27 µM; in the experiment with SW-620 colon it was 31 µM.

Turning to `CO/C(=N\N=C\c1cccc(C(F)(F)F)c1)c1ccncc1`, the GI50 in the experiment on 786-0 renal was 8.71 µM; with HL-60(TB) leukemia, 2.45 µM; with MCF7 breast, 7.33 µM; with NCI-H522 lung, 6.41 µM; with SF-295 CNS it was 7.59 µM; in the experiment on SN12C renal, 16.7 µM. Moreover, the TGI with 786-0 renal is 24.8 µM; in the experiment with HL-60(TB) leukemia it was 7.77 µM and 18 µM; in the experiment with HOP-92 NSCLC, more than 100 µM; in the experiment with MCF7 breast it was more than 100 µM; in the experiment with NCI-H522 lung, 30.3 µM; in the experiment with SK-OV-3 ovarian, 99.1 µM. Besides, the TGI with SN12C renal was more than 100 µM; with SNB-75 CNS it was 52.9 µM; with SW-620 colon, more than 100 µM.

Consider `COc1cc(-c2n/c(=C\c3c(O)[nH]c4ccccc34)cc3c2=Nc2ccccc2-3)cc(OC)c1OC`, for which the GI50 with 786-0 renal was 0.864 µM; with HL-60(TB) leukemia, 2.16 µM; in the experiment on HOP-92 NSCLC, 0.385 µM; in the experiment with MCF7 breast, 0.363 µM; in the experiment on NCI-H522 lung, 0.247 µM; in the experiment on SF-295 CNS it was 0.666 µM. The GI50 with SK-OV-3 ovarian is 4.58 µM; in the experiment with SN12C renal, 0.523 µM; in the experiment on SNB-75 CNS, 0.381 µM; in the experiment on SW-620 colon, 0.449 µM. The TGI was 31.7 µM in the experiment with 786-0 renal; 5.03 µM in the experiment with HL-60(TB) leukemia; 6.28 µM in the experiment on HOP-92 NSCLC; more than 23.2 µM in the experiment on MCF7 breast; 0.664 µM with NCI-H522 lung; more than 38.4 µM in the experiment with SF-295 CNS. The TGI with SK-OV-3 ovarian, in the experiment with SN12C renal, in the experiment with SNB-75 CNS and in the experiment on SW-620 colon was more than 100 µM each time.

On to `O=[N+]([O-])/C=C/c1ccc([N+](=O)[O-])cc1`, for which the GI50 in the experiment on 786-0 renal is 2.02 µM; in the experiment on HL-60(TB) leukemia, 5.38 µM; in the experiment on HOP-92 NSCLC it was 13 µM; with MCF7 breast, 1.84 µM; in the experiment with NCI-H522 lung it was 3.83 µM; in the experiment with SF-295 CNS it was 6.87 µM. Moreover, the GI50 is 4.15 µM with SK-OV-3 ovarian, 2.37 µM in the experiment with SN12C renal, 1.87 µM in the experiment with SNB-75 CNS and 1.49 µM with SW-620 colon. Besides, the TGI was 3.64 µM with 786-0 renal; 54.8 µM in the experiment on HL-60(TB) leukemia; 28.9 µM with HOP-92 NSCLC; 5.29 µM in the experiment on MCF7 breast; 15 µM with NCI-H522 lung; 24 µM in the experiment on SF-295 CNS. Besides, the TGI in the experiment with SK-OV-3 ovarian worked out at 14.4 µM; in the experiment on SN12C renal it was 6.83 µM; in the experiment on SNB-75 CNS, 4.02 µM; in the experiment on SW-620 colon it was 3.21 µM.

Regarding `COc1cc2c3c(n(C)c(=O)c2cc1OC)-c1cc2c(cc1/C3=C/[C@H](N)CCCCN)OCO2`, the GI50 is 1.68 µM in the experiment on 786-0 renal; 13.4 µM in the experiment with HL-60(TB) leukemia; 4.48 µM with HOP-92 NSCLC; 0.537 µM in the experiment on MCF7 breast; 0.665 µM in the experiment on NCI-H522 lung; 0.401 µM in the experiment on SF-295 CNS. For the same compound, the GI50 was 1.4 µM in the experiment with SK-OV-3 ovarian, 0.662 µM with SN12C renal, 3.74 µM with SNB-75 CNS and 0.595 µM in the experiment with SW-620 colon. Also, the TGI with 786-0 renal is 18 µM; in the experiment with HL-60(TB) leukemia, more than 100 µM; in the experiment on HOP-92 NSCLC it was more than 50.9 µM; with MCF7 breast it was 3.93 µM; in the experiment with NCI-H522 lung it was 5.85 µM; in the experiment with SF-295 CNS it was 3.31 µM. Besides, the TGI in the experiment with SK-OV-3 ovarian is more than 24.7 µM; with SN12C renal, 6.39 µM; with SNB-75 CNS, 27.7 µM; in the experiment on SW-620 colon it was more than 37.9 µM.
